Measurements from patent publication US20240199605A1, “SMALL MOLECULAR INHIBITORS OF NF-kB INDUCING KINASE” (Janssen Pharmaceutica NV, priority 2019, published 2024).

Key:
[1] = system: p-IKKα levels in L363 (NIK translocated multiple myeloma) cells; experiment: Effect of compounds on p-IKKα levels in L363 cells (AlphaLISA SureFire Ultra); type: cell-based, human; conditions: Homo sapiens, L-363, 6 h, BAFF stimulated, MG132, 6 h, average of values, read-out: Assay 2 IC50
Summary of the method: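 Inhibition of p-IKKα (Ser176/180) read by AlphaLISA after 6 h, 37 °C compound exposure (11-point 1:3 series, 0.3% DMSO) of L363 cells pre-incubated overnight ± 250 ng/ml BAFF and plated ± BAFF ± 10 μM MG132. Normalised to BAFF/MG132/DMSO and unstimulated controls; IC50 by sigmoidal fitting, duplicates.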

[2] = molecular target: recombinant human NF-kappaB-inducing kinase (NIK/MAP3K14) (Homo sapiens (Human), UniProt Q99558); experiment: Inhibition of auto-phosphorylation of recombinant human NIK/MAP3K14 (AlphaScreen); type: biochemical; conditions: NIK auto-phosphorylation, 5 μM ATP, 1 nM NIK, 2 h at 25° C.; average of values
Summary of the method: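 AlphaScreen read-out (anti-phospho-IKK Ser176/180 antibody, Protein A acceptor and glutathione donor beads) of NIK auto-phosphorylation. Reaction: 1 nM enzyme, 5 μM ATP, Tris pH 7.5 buffer with Mg2+ and vanadate, 2 h at 25° C., final DMSO 0.7%. IC50 came from a sigmoidal curve fit.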

Sequence of recombinant human NF-kappaB-inducing kinase (NIK/MAP3K14) (Q99558 whole entry): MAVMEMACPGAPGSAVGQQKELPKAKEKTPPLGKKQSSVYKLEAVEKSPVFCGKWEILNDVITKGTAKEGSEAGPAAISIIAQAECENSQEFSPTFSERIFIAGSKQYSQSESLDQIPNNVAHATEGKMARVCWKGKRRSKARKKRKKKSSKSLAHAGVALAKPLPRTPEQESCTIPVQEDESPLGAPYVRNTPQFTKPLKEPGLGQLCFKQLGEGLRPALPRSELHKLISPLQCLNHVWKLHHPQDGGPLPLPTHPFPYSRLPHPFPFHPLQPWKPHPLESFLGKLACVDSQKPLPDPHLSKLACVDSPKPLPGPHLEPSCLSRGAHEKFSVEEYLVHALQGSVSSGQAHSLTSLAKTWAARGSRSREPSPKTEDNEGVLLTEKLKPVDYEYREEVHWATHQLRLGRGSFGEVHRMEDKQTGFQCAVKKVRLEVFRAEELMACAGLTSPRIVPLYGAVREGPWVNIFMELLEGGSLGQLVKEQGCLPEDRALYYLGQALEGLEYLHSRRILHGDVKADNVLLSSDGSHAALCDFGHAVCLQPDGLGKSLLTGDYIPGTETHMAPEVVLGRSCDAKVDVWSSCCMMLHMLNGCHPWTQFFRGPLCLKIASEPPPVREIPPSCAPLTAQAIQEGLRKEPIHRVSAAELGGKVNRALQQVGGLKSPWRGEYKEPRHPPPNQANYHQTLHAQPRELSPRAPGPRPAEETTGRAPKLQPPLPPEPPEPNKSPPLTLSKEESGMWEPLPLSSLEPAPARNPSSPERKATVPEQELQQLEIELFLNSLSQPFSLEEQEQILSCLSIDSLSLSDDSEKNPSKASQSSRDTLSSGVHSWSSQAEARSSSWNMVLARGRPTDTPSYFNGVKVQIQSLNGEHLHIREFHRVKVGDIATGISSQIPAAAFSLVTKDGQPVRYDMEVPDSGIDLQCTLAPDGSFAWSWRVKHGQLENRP

Row | Structure (SMILES) | IC50 [1] | IC50 [2]
1 | Cc1nnc([C@](C)(O)C#Cc2cccc(-c3ncc4ccnc(N)c4n3)c2)o1 [Example 18, (R)-4-[3-(8-Aminopyrido[3,4-d]pyrimidin-2-yl)phenyl]-2-(5-methyl-1,3,4-oxadiazol-2-yl)but-3-yn-2-ol] | 61 nM | 0.9 nM
2 | CN1CC[C@@](O)(C#Cc2cccc(-c3ccc4ncnc(N5CC(C#N)C5)c4n3)c2)C1=O [Example 242, (R)-1-(6-(3-((3-Hydroxy-1-methyl-2-oxopyrrolidin-3-yl)ethynyl)phenyl)pyrido[3,2-d]pyrimidin-4-yl)azetidine-3-carbonitrile] | 320 nM | 7.4 nM
3 | Cc1nc(N)c2nc(-c3cccc(C#C[C@@](C)(O)c4nccs4)c3)ccc2n1 [Example 164, (R)-4-(3-(4-Amino-2-methylpyrido[3,2-d]pyrimidin-6-yl)phenyl)-2-(thiazol-2-yl)but-3-yn-2-ol] | 78 nM | 0.7 nM
4 | Cc1nc(N)c2nc(-c3cccc(C#C[C@@](C)(O)c4cnc(C)s4)c3)ccc2n1 [Example 158, (R)-4-(3-(4-Amino-2-methylpyrido[3,2-d]pyrimidin-6-yl)phenyl)-2-(2-methylthiazol-5-yl)but-3-yn-2-ol] | > 5000 nM | 1930 nM
5 | Cc1nnc([C@](C)(O)C#Cc2ccc(C)c(-c3ncc4ccnc(N)c4n3)c2)o1 [Example 74, (R)-4-(3-(8-Aminopyrido[3,4-d]pyrimidin-2-yl)-4-methylphenyl)-2-(5-methyl-1,3,4-oxadiazol-2-yl)but-3-yn-2-ol] | 2950 nM | 56 nM
6 | CN1CC[C@@](O)(C#Cc2cccc(-c3cn4cncc4c(=O)[nH]3)c2)C1=O [Example 218, (R)-6-[3-[2-(3-Hydroxy-1-methyl-2-oxo-pyrrolidin-3-yl)ethynyl]phenyl]-7H-imidazo[1,5-a]pyrazin-8-one] | > 5000 nM | 78 nM
7 | Cc1cc([C@](C)(O)C#Cc2ccc(C)c(-c3ccc4ccnc(N)c4c3)c2)no1 [Example 79, (R)-4-[3-(1-Amino-7-isoquinolyl)-4-methyl-phenyl]-2-(5-methylisoxazol-3-yl)but-3-yn-2-ol] | > 5000 nM | 590 nM
8 | Cc1nc(N)c2nc(-c3cccc(C#C[C@@]4(O)C(=O)N(C)C[C@H]4C)c3)ccc2n1 (stereo in doubt) [Example 292, (3R,4R*)-3-((3-(4-Amino-2-methylpyrido[3,2-d]pyrimidin-6-yl)phenyl)ethynyl)-3-hydroxy-1,4-dimethylpyrrolidin-2-one] | 660 nM | 22 nM
9 | Cc1nc(N)c2nc(-c3cccc(C#CC4(O)CCCc5cccnc54)c3)ccc2n1 (racemic) [Example 165, racemic-8-((3-(4-Amino-2-methylpyrido[3,2-d]pyrimidin-6-yl)phenyl)ethynyl)-5,6,7,8-tetrahydroquinolin-8-ol] | > 5000 nM | 120 nM
10 | Cc1nc(N)c2nc(-c3cccc(C#C[C@](C)(O)c4ccccn4)c3)ccc2n1 [Example 191, (S)-4-[3-(4-Amino-2-methyl-pyrido[3,2-d]pyrimidin-6-yl)phenyl]-2-(2-pyridyl)but-3-yn-2-ol] | 2980 nM | 15 nM
11 | Nc1nccc2cnc(-c3cccc(C#CC4(O)CCCC4)c3)nc12 [Example 33, 1-[2-[3-(8-Aminopyrido[3,4-d]pyrimidin-2-yl)phenyl]ethynyl]cyclopentanol] | 620 nM | 4.5 nM
12 | Nc1nccc2cnc(-c3cccc(C#C[C@]4(O)CCc5cccnc54)c3)nc12 [Example 45, (R)-7-[2-[3-(8-Aminopyrido[3,4-d]pyrimidin-2-yl)phenyl]ethynyl]-5,6-dihydrocyclopenta[b]pyridin-7-ol] | 17 nM | ≤ 0.5 nM
13 | Nc1nccc2cnc(-c3cccc(C#C[C@]4(O)CCn5ccnc54)c3)nc12 [Example 17, (R)-7-[2-[3-(8-Aminopyrido[3,4-d]pyrimidin-2-yl)phenyl]ethynyl]-5,6-dihydropyrrolo[1,2-a]imidazol-7-ol] | 5.9 nM | ≤ 0.5 nM
14 | CN1CC[C@@](O)(C#Cc2cccc(-c3ccc4ccnc(N5CCC5)c4n3)c2)C1=O [Example 233, (R)-3-((3-(8-(Azetidin-1-yl)-1,7-naphthyridin-2-yl)phenyl)ethynyl)-3-hydroxy-1-methylpyrrolidin-2-one] | > 5000 nM | 520 nM

Continued, values first:

Row | IC50 [1] | IC50 [2] | Structure (SMILES)
15 | > 5000 nM | 620 nM | Cc1c(C#C[C@]2(O)CCN(C)C2=O)cccc1-c1nc2c(N)ncnc2s1 [Example 154, (R)-3-((3-(7-Aminothiazolo[5,4-d]pyrimidin-2-yl)-2-methylphenyl)ethynyl)-3-hydroxy-1-methylpyrrolidin-2-one]
16 | 12 nM | ≤ 0.5 nM | Cc1[nH]ncc1-c1cnc(N)c2nc(-c3cccc(C#C[C@]4(O)CCN(C)C4=O)c3)ncc12 [Example 127, (R)-3-[2-[3-[8-Amino-5-(5-methyl-1H-pyrazol-4-yl)pyrido[3,4-d]pyrimidin-2-yl]phenyl]ethynyl]-3-hydroxy-1-methyl-pyrrolidin-2-one]
17 | 31 nM | 1.9 nM | CC(C)Nc1cc(-c2cccc(C#C[C@]3(O)CCN(C)C3=O)c2)nc2c(N)ncnc12 [Example 297, (R)-3-[2-[3-[4-Amino-8-(isopropylamino)pyrido[3,2-d]pyrimidin-6-yl]phenyl]ethynyl]-3-hydroxy-1-methyl-pyrrolidin-2-one]
18 | 2450 nM | 16 nM | CN1CC[C@@](O)(C#Cc2cccc(-c3cc4c(N)ncnc4s3)c2)C1=O [Example 141, (R)-3-((3-(4-Aminothieno[2,3-d]pyrimidin-6-yl)phenyl)ethynyl)-3-hydroxy-1-methylpyrrolidin-2-one]
19 | 210 nM | 0.7 nM | Cc1ccc(-c2ncc3ccnc(N)c3n2)cc1C#C[C@]1(O)CCN(C)C1=O [Example 40, (R)-3-((5-(8-Aminopyrido[3,4-d]pyrimidin-2-yl)-2-methylphenyl)ethynyl)-3-hydroxy-1-methylpyrrolidin-2-one]
20 | 190 nM | 3.8 nM | Cc1nc(N)c2nc(-c3cccc(C#C[C@]4(O)CCCN(C)C4=O)c3)ccc2n1 [Example 187, (R)-3-((3-(4-Amino-2-methylpyrido[3,2-d]pyrimidin-6-yl)phenyl)ethynyl)-3-hydroxy-1-methylpiperidin-2-one]
21 | 92 nM | ≤ 0.5 nM | CN1CC[C@@](O)(C#Cc2cccc(-c3cc(F)c4ncnc(N)c4c3)c2)C1=O [Example 113, (R)-3-[2-[3-(4-Amino-8-fluoro-quinazolin-6-yl)phenyl]ethynyl]-3-hydroxy-1-methyl-pyrrolidin-2-one]
22 | 820 nM | 0.9 nM | CN1CC[C@@](O)(C#Cc2cccc(-c3cc(C#N)c4ncnc(N)c4c3)c2)C1=O [Example 126, (R)-4-Amino-6-(3-((3-hydroxy-1-methyl-2-oxopyrrolidin-3-yl)ethynyl)phenyl)quinazoline-8-carbonitrile]
23 | > 5000 nM | 340 nM | CN1CC[C@](O)(C#Cc2cccc(-c3ccc4ncnc(N5CCC5)c4n3)c2)C1=O [Example 231, (S)-3-((3-(4-(Azetidin-1-yl)pyrido[3,2-d]pyrimidin-6-yl)phenyl)ethynyl)-3-hydroxy-1-methylpyrrolidin-2-one]
24 | 78 nM | 7 nM | COc1ccc(C#C[C@]2(O)CCN(C)C2=O)cc1-c1ccc2nc(C)nc(N)c2n1 [Example 161, (R)-3-((3-(4-Amino-2-methylpyrido[3,2-d]pyrimidin-6-yl)-4-methoxyphenyl)ethynyl)-3-hydroxy-1-methylpyrrolidin-2-one]
25 | 2.3 nM | ≤ 0.5 nM | CN1CC[C@@](O)(C#Cc2cccc(-c3ncc4c(-c5cnn(C)c5)cnc(N)c4n3)c2)C1=O [Example 122, (R)-3-[2-[3-[8-Amino-5-(1-methylpyrazol-4-yl)pyrido[3,4-d]pyrimidin-2-yl]phenyl]ethynyl]-3-hydroxy-1-methyl-pyrrolidin-2-one]
26 | 1400 nM | 42 nM | CN1CC[C@@](O)(C#Cc2cccc(-c3ccc4ncnc(N5CC(C)(C)C5)c4n3)c2)C1=O [Example 226, (R)-3-((3-(4-(3,3-Dimethylazetidin-1-yl)pyrido[3,2-d]pyrimidin-6-yl)phenyl)ethynyl)-3-hydroxy-1-methylpyrrolidin-2-one]
27 | 190 nM | 6.8 nM | [2H]c1nc(N)c2nc(-c3cccc(C#C[C@]4(O)CCN(C)C4=O)c3)cc(CC)c2n1 [Example 308, (R)-3-((3-(4-Amino-8-ethylpyrido[3,2-d]pyrimidin-6-yl-2-d)phenyl)ethynyl)-3-hydroxy-1-methylpyrrolidin-2-one]
28 | 2060 nM | 83 nM | Cc1ccc(C#C[C@@]2(O)CCN(C)C2=O)cc1-c1nc2c(N)ncnc2s1 [Example 11, (S)-3-((3-(7-Aminothiazolo[5,4-d]pyrimidin-2-yl)-4-methylphenyl)ethynyl)-3-hydroxy-1-methylpyrrolidin-2-one]
29 | 300 nM | 4.8 nM | CN1CC[C@@](O)(C#Cc2cccc(-c3ccc4ncnc(N5CC(O)C5)c4n3)c2)C1=O [Example 228, (R)-3-Hydroxy-3-((3-(4-(3-hydroxyazetidin-1-yl)pyrido[3,2-d]pyrimidin-6-yl)phenyl)ethynyl)-1-methylpyrrolidin-2-one]
30 | 5.1 nM | 0.4 nM | CN1CC[C@@](O)(C#Cc2cccc(-c3cc(Br)c4ncnc(N)c4n3)c2)C1=O [Example 253, (R)-3-((3-(4-Amino-8-bromopyrido[3,2-d]pyrimidin-6-yl)phenyl)ethynyl)-3-hydroxy-1-methylpyrrolidin-2-one]
